In ChEMBL document CHEMBL1155172, “Distribution of radioactivity in bone and related structures following administration of [14C]dalbavancin to New Zealand white rabbits” (Antimicrob Agents Chemother, 2007):

Columns and labels:
[1] = Drug level in New Zealand white rabbit bone assessed as [14C]dalbavancin level per gram of tissue at 20 mg/kg, iv after 72 hrs by liquid scintillation counting method; assay type: ADME, organism-based, Oryctolagus cuniculus, Bone element; design: dose 20 mg/kg, route intravenous; details: in vivo
[2] = Drug level in New Zealand white rabbit bone marrow assessed as [14C]dalbavancin level per gram of tissue at 20 mg/kg, iv after 12 hrs by autoradioluminography; assay type: ADME, organism-based, Oryctolagus cuniculus; design: dose 20 mg/kg, route intravenous; details: in vivo
[3] = Drug level in New Zealand white rabbit articular cartilage assessed as [14C]dalbavancin level per gram of tissue at 20 mg/kg, iv after 12 hrs by autoradioluminography; assay type: ADME, organism-based, Oryctolagus cuniculus; design: dose 20 mg/kg, route intravenous; details: in vivo
[4] = Drug level in New Zealand white rabbit compact bone assessed as [14C]dalbavancin level per gram of tissue at 20 mg/kg, iv after 72 hrs by autoradioluminography; assay type: ADME, organism-based, Oryctolagus cuniculus, Bone element; design: dose 20 mg/kg, route intravenous; details: in vivo
[5] = Drug level in New Zealand white rabbit bone marrow assessed as [14C]dalbavancin level per gram of tissue at 20 mg/kg, iv after 24 hrs by autoradioluminography; assay type: ADME, organism-based, Oryctolagus cuniculus; design: dose 20 mg/kg, route intravenous; details: in vivo
[6] = Drug level in New Zealand white rabbit periostium assessed as [14C]dalbavancin level per gram of tissue at 20 mg/kg, iv after 24 hrs by autoradioluminography; assay type: ADME, organism-based, Oryctolagus cuniculus, Periosteum; design: dose 20 mg/kg, route intravenous; details: in vivo
[7] = Drug level in New Zealand white rabbit synovial space assessed as [14C]dalbavancin level per gram of tissue at 20 mg/kg, iv after 72 hrs by autoradioluminography; assay type: ADME, organism-based, Oryctolagus cuniculus; design: dose 20 mg/kg, route intravenous; details: in vivo
[8] = Drug level in New Zealand white rabbit nucleus pulposus assessed as [14C]dalbavancin level per gram of tissue at 20 mg/kg, iv after 72 hrs by liquid scintillation counting method; assay type: ADME, organism-based, Oryctolagus cuniculus; design: dose 20 mg/kg, route intravenous; details: in vivo
[9] = Drug level in New Zealand white rabbit articular cartilage assessed as [14C]dalbavancin level per gram of tissue at 20 mg/kg, iv after 168 hrs by autoradioluminography; assay type: ADME, organism-based, Oryctolagus cuniculus; design: dose 20 mg/kg, route intravenous; details: in vivo
[10] = Drug level in New Zealand white rabbit articular cartilage assessed as [14C]dalbavancin level per gram of tissue at 20 mg/kg, iv after 336 hrs by autoradioluminography; assay type: ADME, organism-based, Oryctolagus cuniculus; design: dose 20 mg/kg, route intravenous; details: in vivo
Oryctolagus cuniculus [11] = experiment: Plasma concentration in New Zealand white rabbit assessed as [14C]dalbavancin level per gram of tissue at 20 mg/kg, iv after 24 hrs by liquid scintillation counting method; assay type: ADME, organism-based; design: dose 20 mg/kg, route intravenous; details: in vivo
[12] = Drug level in New Zealand white rabbit skeletal muscle assessed as [14C]dalbavancin level per gram of tissue at 20 mg/kg, iv after 12 hrs by autoradioluminography; assay type: ADME, organism-based, Oryctolagus cuniculus; design: dose 20 mg/kg, route intravenous; details: in vivo
[13] = Drug level in New Zealand white rabbit meniscus assessed as [14C]dalbavancin level per gram of tissue at 20 mg/kg, iv after 12 hrs by autoradioluminography; assay type: ADME, organism-based, Oryctolagus cuniculus; design: dose 20 mg/kg, route intravenous; details: in vivo
[14] = Drug level in New Zealand white rabbit periostium assessed as [14C]dalbavancin level per gram of tissue at 20 mg/kg, iv after 12 hrs by autoradioluminography; assay type: ADME, organism-based, Oryctolagus cuniculus, Periosteum; design: dose 20 mg/kg, route intravenous; details: in vivo
[15] = Drug level in New Zealand white rabbit epiphyseal plate assessed as [14C]dalbavancin level per gram of tissue at 20 mg/kg, iv after 168 hrs by autoradioluminography; assay type: ADME, organism-based, Oryctolagus cuniculus; design: dose 20 mg/kg, route intravenous; details: in vivo
[16] = Drug level in New Zealand white rabbit nucleus pulposus assessed as [14C]dalbavancin level per gram of tissue at 20 mg/kg, iv after 168 hrs by liquid scintillation counting method; assay type: ADME, organism-based, Oryctolagus cuniculus; design: dose 20 mg/kg, route intravenous; details: in vivo
[17] = Drug level in New Zealand white rabbit skeletal muscle assessed as [14C]dalbavancin level per gram of tissue at 20 mg/kg, iv after 168 hrs by autoradioluminography; assay type: ADME, organism-based, Oryctolagus cuniculus; design: dose 20 mg/kg, route intravenous; details: in vivo
[18] = Drug level in New Zealand white rabbit compact bone assessed as [14C]dalbavancin level per gram of tissue at 20 mg/kg, iv after 168 hrs by autoradioluminography; assay type: ADME, organism-based, Oryctolagus cuniculus, Bone element; design: dose 20 mg/kg, route intravenous; details: in vivo
[19] = Drug level in New Zealand white rabbit ligament assessed as [14C]dalbavancin level per gram of tissue at 20 mg/kg, iv after 72 hrs by autoradioluminography; assay type: ADME, organism-based, Oryctolagus cuniculus; design: dose 20 mg/kg, route intravenous; details: in vivo
[20] = Drug level in New Zealand white rabbit bone marrow assessed as [14C]dalbavancin level per gram of tissue at 20 mg/kg, iv after 120 hrs by liquid scintillation counting method; assay type: ADME, organism-based, Oryctolagus cuniculus; design: dose 20 mg/kg, route intravenous; details: in vivo
[21] = Drug level in New Zealand white rabbit skeletal muscle assessed as [14C]dalbavancin level per gram of tissue at 20 mg/kg, iv after 120 hrs by autoradioluminography; assay type: ADME, organism-based, Oryctolagus cuniculus; design: dose 20 mg/kg, route intravenous; details: in vivo
[22] = Drug level in New Zealand white rabbit bone marrow assessed as [14C]dalbavancin level per gram of tissue at 20 mg/kg, iv after 336 hrs by autoradioluminography; assay type: ADME, organism-based, Oryctolagus cuniculus; design: dose 20 mg/kg, route intravenous; details: in vivo
[23] = Drug level in New Zealand white rabbit skeletal muscle assessed as [14C]dalbavancin level per gram of tissue at 20 mg/kg, iv after 72 hrs by autoradioluminography; assay type: ADME, organism-based, Oryctolagus cuniculus; design: dose 20 mg/kg, route intravenous; details: in vivo
Streptococcus = experiment: Antibacterial activity against Streptococcus; assay type: functional
[24] = Drug level in New Zealand white rabbit bone marrow assessed as [14C]dalbavancin level per gram of tissue at 20 mg/kg, iv after 120 hrs by autoradioluminography; assay type: ADME, organism-based, Oryctolagus cuniculus; design: dose 20 mg/kg, route intravenous; details: in vivo
[25] = Drug level in New Zealand white rabbit periostium assessed as [14C]dalbavancin level per gram of tissue at 20 mg/kg, iv after 168 hrs by autoradioluminography; assay type: ADME, organism-based, Oryctolagus cuniculus, Periosteum; design: dose 20 mg/kg, route intravenous; details: in vivo
[26] = Drug level in New Zealand white rabbit compact bone assessed as [14C]dalbavancin level per gram of tissue at 20 mg/kg, iv after 336 hrs by autoradioluminography; assay type: ADME, organism-based, Oryctolagus cuniculus, Bone element; design: dose 20 mg/kg, route intravenous; details: in vivo
[27] = Drug level in New Zealand white rabbit cerebrospinal fluid assessed as [14C]dalbavancin level per gram of tissue at 20 mg/kg, iv after 12 hrs by liquid scintillation counting method; assay type: ADME, organism-based, Oryctolagus cuniculus; design: dose 20 mg/kg, route intravenous; details: in vivo
[28] = Drug level in New Zealand white rabbit synovial space assessed as [14C]dalbavancin level per gram of tissue at 20 mg/kg, iv after 168 hrs by autoradioluminography; assay type: ADME, organism-based, Oryctolagus cuniculus; design: dose 20 mg/kg, route intravenous; details: in vivo
[29] = Drug level in New Zealand white rabbit nucleus pulposus assessed as [14C]dalbavancin level per gram of tissue at 20 mg/kg, iv after 336 hrs by liquid scintillation counting method; assay type: ADME, organism-based, Oryctolagus cuniculus; design: dose 20 mg/kg, route intravenous; details: in vivo
Blood = experiment: Drug level in New Zealand white rabbit blood assessed as [14C]dalbavancin level per gram of tissue at 20 mg/kg, iv after 336 hrs by autoradioluminography; assay type: ADME, organism-based, Oryctolagus cuniculus; design: dose 20 mg/kg, route intravenous; details: in vivo
[30] = Drug level in New Zealand white rabbit epiphyseal plate assessed as [14C]dalbavancin level per gram of tissue at 20 mg/kg, iv after 120 hrs by autoradioluminography; assay type: ADME, organism-based, Oryctolagus cuniculus; design: dose 20 mg/kg, route intravenous; details: in vivo
[31] = Drug level in New Zealand white rabbit epiphyseal plate assessed as [14C]dalbavancin level per gram of tissue at 20 mg/kg, iv after 72 hrs by autoradioluminography; assay type: ADME, organism-based, Oryctolagus cuniculus; design: dose 20 mg/kg, route intravenous; details: in vivo
Oryctolagus cuniculus [32] = experiment: Plasma concentration in New Zealand white rabbit assessed as [14C]dalbavancin level per gram of tissue at 20 mg/kg, iv after 12 hrs by liquid scintillation counting method; assay type: ADME, organism-based; design: dose 20 mg/kg, route intravenous; details: in vivo
[33] = Drug level in New Zealand white rabbit bone marrow assessed as [14C]dalbavancin level per gram of tissue at 20 mg/kg, iv after 336 hrs by liquid scintillation counting method; assay type: ADME, organism-based, Oryctolagus cuniculus; design: dose 20 mg/kg, route intravenous; details: in vivo
[34] = Drug level in New Zealand white rabbit nucleus pulposus assessed as [14C]dalbavancin level per gram of tissue at 20 mg/kg, iv after 24 hrs by liquid scintillation counting method; assay type: ADME, organism-based, Oryctolagus cuniculus; design: dose 20 mg/kg, route intravenous; details: in vivo
[35] = Drug level in New Zealand white rabbit periostium assessed as [14C]dalbavancin level per gram of tissue at 20 mg/kg, iv after 120 hrs by autoradioluminography; assay type: ADME, organism-based, Oryctolagus cuniculus, Periosteum; design: dose 20 mg/kg, route intravenous; details: in vivo
[36] = Drug level in New Zealand white rabbit periostium assessed as [14C]dalbavancin level per gram of tissue at 20 mg/kg, iv after 72 hrs by autoradioluminography; assay type: ADME, organism-based, Oryctolagus cuniculus, Periosteum; design: dose 20 mg/kg, route intravenous; details: in vivo

Drug uptake [1]: 3.94 µg/g
Drug uptake [2]: 40.2 µg/g
Drug uptake [3]: 25.1 µg/g
Drug uptake [4]: 0.39 µg
Drug uptake [5]: 32.1 µg/g
Drug uptake [6]: 11.35 µg
Drug uptake [7]: 1.49 µg/g
Drug uptake [8]: 0.67 µg
Drug uptake [9]: 7.48 µg/g
Drug uptake [10]: 4.84 µg
Cp (Oryctolagus cuniculus [11]): 19.3 µg/g
Drug uptake [12]: 3.26 µg
Drug uptake [13]: 19.19 µg
Drug uptake [14]: 20.9 µg/g
Drug uptake [15]: 13.1 µg/g
Drug uptake [16]: 0.64 µg/g
Drug uptake [17]: 0.94 µg/g
Drug uptake [18]: 0.34 µg/g
Drug uptake [19]: 4.56 µg
Drug uptake [20]: 9.52 µg/g
Drug uptake [21]: 0.99 µg/g
Drug uptake [22]: 30.3 µg/g
Drug uptake [23]: 1.25 µg
MIC90 (Streptococcus): ≤ 0.03 µg/mL
Drug uptake [24]: 29.9 µg/g
Drug uptake [25]: 7.28 µg
Drug uptake [26]: 0.24 µg/g
Drug uptake [27]: 0.08 µg/g
Drug uptake [28]: 2.66 µg/g
Drug uptake [29]: 0.6 µg/g
Drug uptake (Blood): 3.08 µg/g
Drug uptake [30]: 10.3 µg/g
Drug uptake [31]: 11.7 µg/g
Cp (Oryctolagus cuniculus [32]): 46.88 µg
Drug uptake [33]: 12 µg/g
Drug uptake [34]: 0.76 µg/g
Drug uptake [35]: 12.2 µg/g
Drug uptake [36]: 8.78 µg/g
Compound: CN[C@H]1C(=O)N[C@@H]2Cc3ccc(cc3)Oc3cc4cc(c3O[C@@H]3O[C@H](C(=O)O)[C@@H](O)[C@H](O)[C@H]3NC(=O)CCCCCCCCC(C)C)Oc3ccc(cc3Cl)[C@@H](O)[C@@H]3NC(=O)[C@H](NC(=O)[C@@H]4NC(=O)[C@@H](NC2=O)c2cc(cc(O)c2Cl)Oc2cc1ccc2O)c1ccc(O)c(c1)-c1c(O[C@H]2O[C@H](CO)[C@@H](O)[C@H](O)[C@@H]2O)cc(O)cc1[C@@H](C(=O)NCCCN(C)C)NC3=O [DALBAVANCIN]
